Measured values from patent US4794104A, “Pharmaceutical compositions containing ACTH fragments for the therapy of shock conditions and of respiratory and cardiocirculatory insufficiencies” (priority 1986, dated 1988).

What was measured:
shock = details: in vivo; cited from earlier work
[1] = system: hypovolemic shock (severe hypotension induced by bleeding) in rats; test: Hypovolemic shock by bleeding in anesthetized rats: mean arterial pressure and survival after i.v. bolus; assay type: in vivo, female Wistar rats; details: for Mean arterial pressure, 15-30 min. after treatment / Mean arterial pressure, after bleeding / Mean arterial pressure, before bleeding: mean ± S.E.; for Mean arterial pressure, after bleeding: before treatment; for Mean arterial pressure, before bleeding: baseline before bleeding
Protocol: Intact and adrenalectomized female Wistar rats (Nossan, Correzzano, Milano, Italy) weighing 250 to 300 g, were used. Following anesthetization and heparinization a common carotid artery and an iliac vein were cannulated in rats. Arterial blood pressure was recorded by means of a pressure transducer (Statham P23 Db) connected to a polygraph (Battaglia-Rangoni, Bologna, Italy). […] Hypovolemic shock was produced by intermittently withdrawing blood from the venous catheter until mean arterial pressure fell to 16-30 mm Hg. […] Following bleeding and mean blood pressure stabilization in the range of 16-30 mm Hg, animals were given intravenous bolus of either ACTH fragments. Control animals were intravenously injected with the same volume of saline (0.1 ml/100 g of body weight).

[2] = Toxicity and side-effects of ACTH fragments (general statement)
[3] = group later given 160 μg/kg i.v.
[4] = group later given 40 μg/kg i.v.
[5] = group later given 80 μg/kg i.v.

In the case of `C=CCN1CC[C@]23c4c5ccc(O)c4O[C@H]2C(=O)CC[C@@]3(O)[C@H]1C5` [naloxone], the “Dosage therapeutically active in shock” value (shock) is listed as “about 1 mg/kg”.

For “ACTH (1-13) (SYSMEHFRWGKPV; Corticotropin; UniProt P01189 138-150, looked up, fragment) [ACTH-(1-13)]”, the “No. of deaths 120 min. after treatment” value ([1]; 160 μg/kg i.v. after bleeding) was 0, the “Mean arterial pressure, 15-30 min. after treatment” value ([1]; 160 μg/kg i.v. after bleeding) was 34.50 ± 1.32 mm Hg and the “Mean arterial pressure, after bleeding” value [1, 3] was 15.75 ± 1.31 mm Hg. For the same compound, the “Mean arterial pressure, before bleeding” value [1, 3] was 66.25 ± 9.14 mm Hg.

With “ACTH (1-16) (SYSMEHFRWGKPVGKK; Corticotropin; UniProt P01189 138-153, looked up, fragment) [ACTH-(1-16)]” the “No. of deaths 120 min. after treatment” value ([1]; 160 μg/kg i.v. after bleeding) was 0, the “Mean arterial pressure, 15-30 min. after treatment” value ([1]; 160 μg/kg i.v. after bleeding) was 54.50 ± 2.02 mm Hg and the “Mean arterial pressure, after bleeding” value [1, 3] was 15.50 ± 2.53 mm Hg. For the same compound, the “Mean arterial pressure, before bleeding” value [1, 3] was 78.25 ± 12.46 mm Hg.

In the case of ACTH (1-17) [ACTH-(1-17)], the “No. of deaths 120 min. after treatment” value ([1]; 160 μg/kg i.v. after bleeding) is reported as 0, the “Mean arterial pressure, 15-30 min. after treatment” value ([1]; 160 μg/kg i.v. after bleeding) is reported as 41.50 ± 3.75 mm Hg and the “Mean arterial pressure, after bleeding” value [1, 3] is reported as 15.75 ± 2.29 mm Hg. For the same compound, the “Mean arterial pressure, before bleeding” value [1, 3] was 57.50 ± 7.17 mm Hg.

In the case of “ACTH (1-18) (SYSMEHFRWGKPVGKKRR; Corticotropin; UniProt P01189 138-155, looked up, fragment) [ACTH-(1-18)]”, the “No. of deaths 120 min. after treatment” value ([1]; 160 μg/kg i.v. after bleeding) is reported as 0, the “Mean arterial pressure, 15-30 min. after treatment” value ([1]; 160 μg/kg i.v. after bleeding) is reported as 38.50 ± 1.85 mm Hg and the “Mean arterial pressure, after bleeding” value [1, 3] is reported as 15.00 ± 2.12 mm Hg. For the same compound, the “Mean arterial pressure, before bleeding” value [1, 3] was 53.00 ± 4.88 mm Hg.

In the case of ACTH (1-24) [ACTH-(1-24)], the “No. of deaths 120 min. after treatment” value ([1]; 40 μg/kg i.v. after bleeding) is reported as 0, the “Mean arterial pressure, 15-30 min. after treatment” value ([1]; 40 μg/kg i.v. after bleeding) is reported as 39.40 ± 6.32 mm Hg and the “No. of deaths 120 min. after treatment” value ([1]; 80 μg/kg i.v. after bleeding) is reported as 0. The “Mean arterial pressure, 15-30 min. after treatment” value ([1]; 80 μg/kg i.v. after bleeding) was 59.48 ± 8.10 mm Hg, the “No. of deaths 120 min. after treatment” value ([1]; 160 μg/kg i.v. after bleeding) was 0 and the “Mean arterial pressure, 15-30 min. after treatment” value ([1]; 160 μg/kg i.v. after bleeding) was 75.80 ± 8.45 mm Hg. The “Mean arterial pressure, after bleeding” value [1, 4] was 17.40 ± 2.68 mm Hg, the “Mean arterial pressure, before bleeding” value [1, 4] was 82.33 ± 11.73 mm Hg and the “Mean arterial pressure, after bleeding” value [1, 5] was 19.23 ± 3.65 mm Hg. The “Mean arterial pressure, before bleeding” value [1, 5] was 80.15 ± 9.43 mm Hg, the “Mean arterial pressure, after bleeding” value [1, 3] was 23.15 ± 2.90 mm Hg and the “Mean arterial pressure, before bleeding” value [1, 3] was 82.40 ± 10.75 mm Hg. For the same compound, the Toxicity / side-effects [2] was “substantially non-toxic”.

With “ACTH (1-39) (SYSMEHFRWGKPVGKKRRPVKVYPNGAEDESAEAFPLEF; Corticotropin; UniProt P01189 138-176, looked up) [ACTH-(1-39), full-length ACTH (1-39)]” the “No. of deaths 120 min. after treatment” value ([1]; 160 μg/kg i.v. after bleeding) was 0, the “Mean arterial pressure, 15-30 min. after treatment” value ([1]; 160 μg/kg i.v. after bleeding) was 35.75 ± 5.65 mm Hg and the “Mean arterial pressure, after bleeding” value [1, 3] was 14.75 ± 2.32 mm Hg. The “Mean arterial pressure, before bleeding” value [1, 3] was 88.25 ± 2.17 mm Hg.

With “ACTH (4-10) (MEHFRWG; Corticotropin; UniProt P01189 141-147, looked up, fragment) [ACTH-(4-10)]” the “No. of deaths 120 min. after treatment” value ([1]; 160 μg/kg i.v. after bleeding) was 0, the “Mean arterial pressure, 15-30 min. after treatment” value ([1]; 160 μg/kg i.v. after bleeding) was 47.25 ± 6.18 mm Hg and the “Mean arterial pressure, after bleeding” value [1, 3] was 13.75 ± 2.53 mm Hg. The “Mean arterial pressure, before bleeding” value [1, 3] was 63.25 ±6.76 mm Hg.

With “ACTH(25-39) (NGAEDESAEAFPLEF; Corticotropin; UniProt P01189 162-176, looked up, fragment)” the “No. of deaths 120 min. after treatment” value ([1]; 160 μg/kg i.v. after bleeding) was 1, the “Mean arterial pressure, 15-30 min. after treatment” value ([1]; 160 μg/kg i.v. after bleeding) was 25.50 ± 4.40 mm Hg and the “Mean arterial pressure, after bleeding” value [1, 3] was 11.50 ± 1.34 mm Hg. For the same compound, the “Mean arterial pressure, before bleeding” value [1, 3] was 78.17 ± 7.25 mm Hg.
